From patent publication US20130324542A1, “[1,2,4]TRIAZOLO[4,3-B][1,2,4]TRIAZINE COMPOUNDS, PREPARATION METHOD AND USE THEREOF” (SHANGHAI INSTITUTE OF MATERIA MEDICA, CHINESE ACADEMY OF …, priority 2010, published 2013) come the findings set out here.

Test [1] concerns NIH3T3 background cells. Put plainly: Cell proliferation, SRB assay, NIH3T3 background cells as control. Particulars: Mus musculus, NIH3T3, 72 h, read-out: inhibition rate (%) on proliferation of NIH3T3 background cells. The format is cell-based. As to the method: NIH3T3/TPR-Met cells in the logarithmic growth phase and NIH3T3 background cells were seeded in a 96-well microcuture plate at 90111_, per well and cultivated overnight, followed by addition of 104 of the compound at different concentrations. Three concentrations were set, and for each concentration, the test was carried out in triplicate wells. 72 h later, the culture medium was removed. The residue was fixed by precooled 10% TCA at 4° C. for 1 h, washed by distilled water for 5 times and dried at room temperature. After that, 4 mg/mL of sulforodamine B (SRB) in 1% glacial acetic acid was added to each well (1004 per well) for staining at room temperature for 15 min. The excess dye was removed by washed with 1% glacial acetic acid for 5 times and dried in air. At last, 150 μL of Tris-HCL solution (10 mM Tris, pH 10.0) was added to each well. OD values were measured on a multi-well spectrophotometer at […].

The target of test [2] is c-Met tyrosine kinase (Homo sapiens, UniProt P08581). Put plainly: c-Met kinase activity on molecular level (ELISA, Poly(Glu,Tyr)4:1 substrate). Format: biochemical. Particulars: ATP 5 μM, 37° C., 1 h. As to the method: Poly(Glu, Tyr)4:1 as an enzyme substrate was diluted by potassium ion-free PBS (10 mM, sodium phosphate buffer, 150 mM NaCl, pH7.2-7.4) into a solution of 20 μg/ml. […] After the liquid in wells was removed, the plate was washed three time by T-PBS (PBS solution containing 0.1% Tween-20) at 200 μl/well, 5 min for each time. The ELISA plate was then dried in an oven at 37° C. for 1-2 h.
c-Met tyrosine kinase, sequence (P08581 25-1390): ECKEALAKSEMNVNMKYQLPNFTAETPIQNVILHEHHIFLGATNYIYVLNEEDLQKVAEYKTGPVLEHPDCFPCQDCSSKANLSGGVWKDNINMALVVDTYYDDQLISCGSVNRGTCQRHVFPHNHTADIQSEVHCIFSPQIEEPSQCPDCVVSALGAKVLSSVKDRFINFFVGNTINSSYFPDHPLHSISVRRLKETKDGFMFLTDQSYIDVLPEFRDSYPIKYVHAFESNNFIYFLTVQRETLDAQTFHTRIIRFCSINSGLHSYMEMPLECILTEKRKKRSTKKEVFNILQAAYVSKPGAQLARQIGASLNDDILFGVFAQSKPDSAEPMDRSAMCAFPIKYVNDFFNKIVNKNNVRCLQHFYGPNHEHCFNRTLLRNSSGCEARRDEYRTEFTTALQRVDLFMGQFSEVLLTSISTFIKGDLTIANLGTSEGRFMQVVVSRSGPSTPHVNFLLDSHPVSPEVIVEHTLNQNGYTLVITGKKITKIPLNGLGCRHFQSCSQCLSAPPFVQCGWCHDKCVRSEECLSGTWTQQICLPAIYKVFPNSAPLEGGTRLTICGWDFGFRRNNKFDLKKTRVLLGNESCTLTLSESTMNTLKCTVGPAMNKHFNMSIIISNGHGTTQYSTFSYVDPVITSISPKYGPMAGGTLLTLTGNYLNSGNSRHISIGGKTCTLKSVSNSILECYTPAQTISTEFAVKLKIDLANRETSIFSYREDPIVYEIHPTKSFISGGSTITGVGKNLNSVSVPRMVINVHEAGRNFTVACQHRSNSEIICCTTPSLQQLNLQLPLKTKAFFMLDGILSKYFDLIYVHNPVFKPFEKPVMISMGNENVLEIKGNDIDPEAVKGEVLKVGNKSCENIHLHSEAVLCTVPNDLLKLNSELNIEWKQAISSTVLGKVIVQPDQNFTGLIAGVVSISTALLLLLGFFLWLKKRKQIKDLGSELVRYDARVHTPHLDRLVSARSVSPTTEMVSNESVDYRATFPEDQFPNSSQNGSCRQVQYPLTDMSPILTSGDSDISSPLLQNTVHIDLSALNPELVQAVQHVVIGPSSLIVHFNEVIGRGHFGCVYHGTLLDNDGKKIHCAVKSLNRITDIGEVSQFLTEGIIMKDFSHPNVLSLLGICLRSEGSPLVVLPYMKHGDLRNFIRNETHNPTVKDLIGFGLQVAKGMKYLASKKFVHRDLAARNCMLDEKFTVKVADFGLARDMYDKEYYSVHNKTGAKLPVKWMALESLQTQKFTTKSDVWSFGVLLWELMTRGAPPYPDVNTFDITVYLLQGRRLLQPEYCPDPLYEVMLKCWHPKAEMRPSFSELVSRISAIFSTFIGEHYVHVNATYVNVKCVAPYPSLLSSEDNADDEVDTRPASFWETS
Each well was added with 50 μL of ATP solution diluted by reaction buffer (50 mM HEPES pH 7.4, 50 mM MgCl2, 0.5 mM MnCl2, 0.2 mM Na3VO4, 1 mM DTT) at a final concentration of 5 μM. Compound diluted by 1% DMSO into a suitable concentration was added at 10 μl/well and then c-Met tyrosine kinase protein diluted by 40 μl of reaction buffer was added. The plate was placed on a shaking table (100 rpm) at 37° C. and incubated for 1 h, and then washed three times by T-PBS. For each assay, triplicate wells without enzyme were used as blank control and wells having the corresponding DMSO concentration without compound were used as negative control. Primary antibody PY99 (p-Tyr (PY99), Cell Signaling Technology, 1:1000 diluted in 5 mg/mL BSA T-PBS) was added at 100 μl/well. The plate was then placed on a shaking table at 37° C. and incubated for 0.5 h, and washed by T-PBS. Secondary antibody horseradish peroxidase-conjugated goat anti-mouse IgG (1:2000 diluted in 5 mg/mL BSA T-PBS) was added at 100 μl/well. The plate was then placed on a shaking table at 37° C. for 0.5 h and washed three times by T-PBS. 2 mg/mL of OPD developer (diluted by a 0.1M citric acid-sodium citrate buffer (pH=5.4) containing 0.03% of H2O2) was added at 100 μl/well, and the plate was kept in dark at 25° C. for 1-10 min. OPD was ultrasonically dissolved and the developer solution was prepared just before use. 2 M of H2SO4 was added at 50 μl/well to stop the reaction. The plate was read using a wavelength regulated multi-well spectrophotometer (SPECTRA MAX 190) at 490 nm.
The inhibition rate was calculated according to the following equation:
Inhibition rate (%)=(1−(ODcompound−ODblank)/(ODnegative−ODblank))×100%
IC50 value was calculated through a four-parameter fit according to the inhibition curve.
(In general: ELISA stands for enzyme-linked immunosorbent assay.)

The subject of test [3] is NIH3T3/TPR-Met cells. The test can be described thus: Cell proliferation mediated by c-Met, SRB assay, NIH3T3/TPR-Met cells. The format is cell-based. Particulars: Mus musculus, NIH3T3, 72 h, read-out: inhibition rate (%) on proliferation of NIH3T3/TPR-Met cells. As to the method:
Three concentrations were set, and for each concentration, the test was carried out in triplicate wells. 72 h later, the culture medium was removed. The residue was fixed by precooled 10% TCA at 4° C. for 1 h, washed by distilled water for 5 times and dried at room temperature. […] The excess dye was removed by washed with 1% glacial acetic acid for 5 times and dried in air. At last, 150 μL of Tris-HCL solution (10 mM Tris, pH 10.0) was added to each well.
On the technique in general: Sulforhodamine B stains cellular protein and so reports cell mass.

Each structure is given as a SMILES string. pIC50: −log10 of the molar value.

`c1ccc(COc2ccc(-c3cnc4nnc(Cc5ccc6ncccc6c5)n4n3)cc2)cc1` [Compound I-2, 3-(6-quinolylmethyl)-6-(4-benzyloxyphenyl)-[1,2,4]triazolo[4,3-b][1,2,4]triazine]: in test [1], the inhibition at 1 µM was 16.2%, the inhibition at 10 µM came out at 28.4% and the inhibition at 50 µM came to 33.1%.

In general, pIC50 refers to the IC50 on a negative log10 scale, so that one unit is a factor of ten. Read a high pIC50 as a low IC50. Regarding `CCCn1cc(-c2cnc3nnc(Cc4c[nH]c5ccccc45)n3n2)cn1` [Compound I-9, 3-(3-indolylmethyl)-6-[(1-propyl)-4-pyrazolyl]-[1,2,4]triazolo[4,3-b][1,2,4]triazine], the negative logarithm of the IC50 (pIC50) in test [2] was 6.65. Also, in test [3], the inhibition at 1 µM was 5%, the inhibition at 10 µM came out at 9.4% and the inhibition at 50 µM was 67.5%. Besides, in test [1], the inhibition at 1 µM stood at 17.8%, the inhibition at 10 µM was 22.7% and the inhibition at 50 µM is 37.3%.

Turning to `Brc1ccc(-c2cnc3nnc(Cc4ccc5ncccc5c4)n3n2)cc1` [Compound I-17, 3-(6-quinolylmethyl)-6-(4-bromophenyl)-[1,2, 4]triazolo[4,3-b][1,2,4]triazine], in test [1], the inhibition at 1 µM was found to be 24.9%, the inhibition at 10 µM is 35.9% and the inhibition at 50 µM was 34.9%.

With `c1ccc(COc2ccc(-c3cnc4nnc(Cc5c[nH]c6ccccc56)n4n3)cc2)cc1` [Compound I-18, 3-(3-indolylmethyl)-6-(4-bnzyloxyphenyl)-[1,2,4]triazolo[4,3-b][1,2,4]triazine], in test [1], the inhibition at 1 µM turned out to be 17.5%, the inhibition at 10 µM is 20.8% and the inhibition at 50 µM came to 28.7%.

Turning to `CC(C)(C)OC(=O)N1CCC(n2cc(-c3cnc4nnc(C(F)(F)c5ccc6ncccc6c5)n4n3)cn2)CC1` [Compound I-20, 3-[(6-quinolyl)difluoromethyl]-6-[1-(1-tert-butoxycarbonyl-4-piperidyl)-4-pyrazolyl]-[1,2,4] triazolo[4,3-b][1,2,4]triazine], the pIC50 in test [2] is 8.10. In test [3], the inhibition at 1 µM amounted to 81.2%, the inhibition at 10 µM amounted to 87.8% and the inhibition at 50 µM was found to be 86.5%. For the same compound, in test [1], the inhibition at 1 µM was 18.8%, the inhibition at 10 µM came to 25.8% and the inhibition at 50 µM amounted to 38.6%.

With `FC(F)(c1ccc2ncccc2c1)c1nnc2ncc(-c3cnn(C4CCNCC4)c3)nn12` [Compound I-21, 3-[(6-quinolyl)difluoromethyl]-6-[1-(4-piperidyl)-4-pyrazolyl]-[1,2,4]triazolo[4,3-b][1,2,4] triazine], in test [2], the pIC50 is 7.09. In test [3], the inhibition at 1 µM was determined as 6%, the inhibition at 10 µM is 76.8% and the inhibition at 50 µM stood at 85.1%. Moreover, in test [1], the inhibition at 1 µM worked out at 12%, the inhibition at 10 µM was 25.5% and the inhibition at 50 µM is 28.4%.

In the case of `FC(F)(c1ccc2ncccc2c1)c1nnc2ncc(-c3ccc(OCc4ccccc4)cc3)nn12` [Compound I-24, 3-[(6-quinolyl)difluoromethyl]-6-(4-benzyloxy-phenyl)-[1,2,4]triazolo[4,3-b][1,2,4]triazine], the negative-log IC50 (pIC50) in test [2] is 8.54. In test [3], the inhibition at 1 µM came to 83.5%, the inhibition at 10 µM was found to be 87.7% and the inhibition at 50 µM is 87.2%. In test [1], the inhibition at 1 µM was 16.9%, the inhibition at 10 µM is 23.6% and the inhibition at 50 µM turned out to be 32.8%.

In the case of `COc1ccc2c(OCc3nnc4ncc(-c5ccc(Cl)cc5)nn34)ccnc2c1` [II-2, 3-[(7-methoxy-4-quinolyl)oxymethyl]-6-(4-chlorophenyl)-[1,2,4]triazolo[4,3-b][1,2,4]triazine], the negative-log IC50 (pIC50) in test [2] was 9.43. The inhibition at 10 µM amounted to 79% in test [3] and 21% in test [1].

`COc1ccc2c(OCc3nnc4ncc(-c5ccc(Br)cc5)nn34)ccnc2c1` [II-3, 3-[(7-methoxy-4-quinolyl)oxymethyl]-6-(4-bromophenyl)-[1,2,4]triazolo[4,3-b][1,2,4]triazine] showed a negative-log IC50 (pIC50) in test [2] of 9.64. Moreover, the inhibition at 10 µM came out at 77.3% in test [3] and 33.8% in test [1].

Compound `COc1ccc2c(OCc3nnc4ncc(-c5cccs5)nn34)ccnc2c1` [II-4, 3-[(7-methoxy-4-quinolyl)oxymethyl]-6-(2-thienyl)-[1,2,4]triazolo[4,3-b][1,2,4]triazine] had a pIC50 in test [2] of 7.70. Further, the inhibition at 10 µM came out at 80.6% in test [3] and 0% in test [1].

In turn, `COC(=O)c1ccc(-c2cnc3nnc(COc4ccnc5cc(OC)ccc45)n3n2)cc1` [II-5, 3-[(7-methoxy-4-quinolyl)oxymethyl]-6-(4-methoxyformylphenyl)-[1,2,4]triazolo[4,3-b][1,2, 4]triazine] gave a negative logarithm of the IC50 (pIC50) in test [2] of 9.11. In addition, the inhibition at 10 µM in test [3] turned out to be 79.2%; in test [1], 6.2%.

Turning to `COc1ccc2c(OCc3nnc4ncc(-c5ccc([N+](=O)[O-])cc5)nn34)ccnc2c1` [II-6, 3-[(7-methoxy-4-quinolyl)oxymethyl]-6-(4-nitrophenyl)-[1,2,4]triazolo[4,3-b][1,2,4]triazine], in test [2], the negative-log IC50 (pIC50) is 9.25. For the same compound, in test [3], the inhibition at 1 µM worked out at 78.6%, the inhibition at 10 µM is 82.4% and the inhibition at 50 µM was 82.3%. Further, in test [1], the inhibition at 1 µM stood at 46.2%, the inhibition at 10 µM stood at 53.3% and the inhibition at 50 µM is 50.6%.

In test [2], `COc1ccc2c(OCc3nnc4ncc(-c5ccc(OCc6ccccc6)cc5)nn34)ccnc2c1` [II-8, 3-[(7-methoxy-4-quinolyl)oxymethyl]-6-(4-benzyloxyphenyl)-[1,2,4]triazolo[4,3-b][1,2,4] triazine] gave a pIC50 of 7.49. The inhibition at 10 µM in test [3] is 81.2%; in test [1], 7.5%.

The compound `COc1cc2nccc(OCc3nnc4ncc(-c5ccc(F)cc5)nn34)c2cc1OC` [II-14, 3-[(6,7-dimethoxy-4-quinolyl)oxymethyl]-6-(4-fluorophenyl)-[1,2,4]triazolo[4,3-b][1,2,4] triazine] gave a pIC50 in test [2] of 8.52. In addition, the results for the inhibition at 10 µM in test [3] and in test [1] were 75.6% and 0%, respectively.

In turn, `COc1cc2nccc(OCc3nnc4ncc(-c5ccc(Cl)cc5)nn34)c2cc1OC` [II-15, 3-[(6,7-dimethoxy-4-quinolyl)oxymethyl]-6-(4-chlorophenyl)-[1,2,4]triazolo[4,3-b][1,2,4] triazine] had a pIC50 in test [2] of 6.74. In addition, the results for the inhibition at 10 µM in test [3] and in test [1] were 22.6% and 0%, respectively.

On to `COc1cc2nccc(OCc3nnc4ncc(-c5ccc(Br)cc5)nn34)c2cc1OC` [II-16, 3-[(6,7-dimethoxy-4-quinolyl)oxymethyl]-6-(4-bromophenyl)-[1,2,4]triazolo[4,3-b][1,2,4] triazine], for which, in test [2], the pIC50 was 9.70. The values for the inhibition at 10 µM in test [3] and in test [1] were 87.9% and 56.2%, respectively.
